# According to patent publication US10696686B2, “Herbicidally active (alkynyl-phenyl)-substituted cyclic dione compounds and derivatives thereof” (Syngenta Limited, priority 2013, dated 2020):
# Experiments:
# Type in all cases: in vivo
# [1] = tested on: grassy (in particular warm climate grassy) monocotyledonous weeds; assay: Post-emergence herbicidal activity, summary statements on Biological Examples 1 to 3; settings: applied at about 250 g/ha post-emergence; Biological Examples 1 and 2
# Protocol: (§1) Seeds of a variety of test plant species were sown in standard soil ** in pots. After cultivation for one day (pre-emergence) or after 8 days cultivation (post-emergence) under controlled conditions in a glasshouse (at 24/16° C., day/night; 14 hours light; 65% humidity), the plants were sprayed with an aqueous spray solution derived from the formulation of the technical active ingredient (the test herbicide) in acetone/water (50:50) solution containing 0.5% Tween 20 (polyoxyethylene sorbitan monolaurate, CAS Reg. No. 9005-64-5). The test plants were then grown on under controlled conditions in a glasshouse (at 24/16° C., day/night; 14 hours light; 65% humidity) and watered twice daily. 13 Days after application of the test herbicide, for pre- and post-emergence, the test was evaluated visually for percentage phytotoxicity to each plant (where 100%=total damage to plant; 0%=no damage to plant). Generally, each test herbicide is only tested on 1 plant per plant species for each application rate tested and for each application timing. ** The “standard soil” in Biological Example 1 is usually a “sand” or “sandy loam” type of soil.
# Seeds of a variety of monocotyledonous and dicotyledonous test plants are sown in standard soil in pots. The plants are cultivated for one day (for pre-emergence) or for about 12 days (range=10-13 days) (for post-emergence) under controlled conditions in a glasshouse (warm climate species at 24/18° C., cool climate species at 20/16° C., both at day/night; 16 hours light; 65% humidity). An “instant formulation”, known as the “IF50”, containing 50 g/litre (i.e. 5% w/v) of the “technical” (i.e. unformulated) active ingredient is prepared by dissolving the active ingredient in a mixture of organic solvents and emulsifier, details of which are provided in the Table below. […]
# The test plants are then grown on, in a glasshouse (greenhouse) under controlled conditions (at either 24/18° C. or 20/16° C. (day/night) as mentioned above; 16 hours light; 65% humidity) and are watered twice daily. Either 14 or 15 days after application of the herbicide (14 or 15 DAA) (for post-emergence), or 20 days after application of the herbicide (20 DAA) (for pre-emergence), the test plants are evaluated visually, and an assessed percentage phytotoxicity score is given for each herbicidal application on each plant species (where 100%=total damage to plant; 0%=no damage to plant). […]
# [2] = tested on: Setaria faberi (SETFA); assay: Biological Example 1B glasshouse assay, pre-emergence application; settings: 250 g/ha, 13 days after application
# Protocol: as §1
# (§2) Dicotyledonous weeds: ABUTH=Abutilon theophrasti; AMARE=Amaranthus retroflexus. Grassy monocotyledonous weeds: SETFA=Setaria faberi; ALOMY=Alopecurus myosuroides; ECHCG=Echinochloa crus-galli; ZEAMX=Zea mays (corn, maize, e.g. volunteer corn). For Compound A16, the grassy monocotyledonous weed LOLPE (Lolium perenne) was used in the test insterad of ALOMY.
# [3] = tested on: Abutilon theophrasti (ABUTH); assay: as above; settings: 250 g/ha, 13 days after application
# Protocol: as §1, §2
# [4] = tested on: Zea mays (ZEAMX, corn, maize, e.g. volunteer corn); assay: as above; settings: 250 g/ha, 13 days after application
# Protocol: as §1, §2
# [5] = tested on: Alopecurus myosuroides (ALOMY); assay: as above; settings: 250 g/ha, 13 days after application
# Protocol: as §1, §2
# [6] = tested on: Echinochloa crus-galli (ECHCG); assay: as above; settings: 250 g/ha, 13 days after application
# Protocol: as §1, §2
# [7] = tested on: Amaranthus retroflexus (AMARE); assay: as above; settings: 250 g/ha, 13 days after application
# Protocol: as §1, §2
# [8] = tested on: Setaria faberi (SETFA); assay: Biological Example 1A glasshouse assay, post-emergence application; settings: for pest or weed control at 30 g/ha / pest or weed control at 250 g/ha: Setaria faberi, 312 h, 13 days after application, read-out: Percentage phytotoxicity SETFA
# Protocol: as §1, §2
# [9] = tested on: Abutilon theophrasti (ABUTH); assay: as above; settings: 312 h, 13 days after application, read-out: Percentage phytotoxicity ABUTH
# Protocol: as §1, §2
# [10] = tested on: Zea mays (ZEAMX, corn, maize, e.g. volunteer corn); assay: as above; settings: for pest or weed control at 30 g/ha / pest or weed control at 250 g/ha: Zea mays, 312 h, 13 days after application, read-out: Percentage phytotoxicity ZEAMX
# Protocol: as §1, §2
# [11] = tested on: Alopecurus myosuroides (ALOMY); assay: as above; settings: for Percentage phytotoxicity ALOMY: 13 days after application
# Protocol: as §1, §2
# [12] = tested on: Echinochloa crus-galli (ECHCG); assay: as above; settings: 312 h, 13 days after application, read-out: Percentage phytotoxicity ECHCG
# Protocol: as §1, §2
# [13] = tested on: Amaranthus retroflexus (AMARE); assay: as above; settings: 312 h, 13 days after application, read-out: Percentage phytotoxicity AMARE
# Protocol: as §1, §2
# [14] = applied at about 250 g/ha post-emergence
Compound,post-emergent herbicidal potency against grassy monocotyledonous weeds (in words) [1],Percentage phytotoxicity SETFA [2] [%],Percentage phytotoxicity ABUTH [3] [%],Percentage phytotoxicity ZEAMX [4] [%],Percentage phytotoxicity ALOMY [5] [%],Percentage phytotoxicity ECHCG [6] [%],Percentage phytotoxicity AMARE [7] [%],pest or weed control at 30 g/ha ([8]; post-emergence) [%],"pest or weed control at 250 g/ha ([8]; post-emergence, 250 g/ha) [%]",pest or weed control at 30 g/ha [9] [%],pest or weed control at 250 g/ha [9] [%],pest or weed control at 30 g/ha ([10]; post-emergence) [%],"pest or weed control at 250 g/ha ([10]; post-emergence, 250 g/ha) [%]",Percentage phytotoxicity ALOMY ([11]; 30 g/ha) [%],Percentage phytotoxicity ALOMY ([11]; 250 g/ha) [%],pest or weed control at 30 g/ha [12] [%],pest or weed control at 250 g/ha [12] [%],pest or weed control at 30 g/ha [13] [%],pest or weed control at 250 g/ha [13] [%],further results
CC#Cc1cc(F)c(C2C(=O)CCC2=O)c(OC)c1 [Compound A9],potent post-emergent herbicides,80,0,80,30,80,20,70,80,0,30,70,90,0,20,60,70,0,20,
CC#Cc1cc(F)c(C2C(=O)CC3(CCOCC3)CC2=O)c(OC)c1 [Compound A14],,20,0,30,40,70,20,,70,,0,,80,,40,,20,,10,"post-emergent herbicidal potency on SETFA (in words) [8, 14]: potent post-emergent herbicides; herbicidal potency against SETFA compared with compound B2 (in words) ([8]; post-emergence, 250 g/ha, Biological Example 1A, more potent 'perhaps also' on SETFA): perhaps also; post-emergent herbicidal potency on ZEAMX (in words) [10, 14]: potent post-emergent herbicides; herbicidal potency against ZEAMX compared with compound B2 (in words) ([10]; post-emergence, 250 g/ha, Biological Example 1A): more potent herbicide; herbicidal potency against ALOMY compared with compound B2 (in words) ([11]; 250 g/ha, Biological Example 1A): more potent herbicide"
CC#Cc1cc(F)c(C2C(=O)C(C)(C)OC(C)(C)C2=O)c(OC)c1 [Compound A10],potent post-emergent herbicides,70,0,50,50,90,0,70,90,0,0,40,90,40,80,50,80,0,0,
C#Cc1cc(F)c(C2C(=O)CC3(CCOCC3)CC2=O)c(OC)c1 [Compound B2],,30,0,50,50,40,40,,60,,0,,40,,10,,30,,0,
CC#Cc1cc(F)c(C2C(=O)CC(CC(C)SC)CC2=O)c(OC)c1 (stereo not shown) [Compound A12],,,,,,,,,0,,0,,30,,0,,20,,0,
